Laboratory results: patent US10766940B2, “Brain penetrant amylin receptor based peptides for Alzheimer's disease” (The Governors of the University of Alberta, priority 2016, dated 2020)
Residues, ends and D or L forms follow the SMILES beside them. No end group written: not given here.

How the values were obtained:
[1] = system: APP, CTR, RAMP3, synapsin 1, synaptophysin, Iba1 in TgCRND8 mice brains; assay: Western blot of brain homogenates after 5 months icv AC253; type: in vivo, mouse
Method: A microcannula was stereotaxically inserted into the right cerebral ventricle (0.12 right lateral and 0.06 posterior to bregma, 3 mm deep) of isofluorane-anesthetized mice, and connected to an osmotic pump (Alzet; model 2004) implanted subcutaneously on the back of the mouse. The pump infused a solution of either aCSF or AC253 in aCSF into the ventricle at a rate of […] to yield an estimated concentration of 1 μM AC253 in the mouse CSF at equilibrium based upon the known CSF dynamics in the mouse brain (Di Pardo et al., 2012). The pump reservoir was replaced every 28 days for a total of 5-6 months. Animals were monitored on a daily basis for signs of treatment-related toxicity, such as poor grooming, lethargy, loss of bodyweight, and abnormal behavior. After completion of medication and behavioral tests, all mice were killed with an overdose of isoflourane anesthetic, perfused transcardially with saline, and the brains were harvested. The left hemisphere per animal was frozen for biochemical analysis (Western blot, ELISA), and the right hemisphere retained for histological analysis.
Frozen brain tissues were homogenized in cold RIPA buffer with protease inhibitors and proteins were isolated and measured using BCA assay (BioRad, Mississauga, ON, Canada). Proteins were loaded at 50 μg per lane on a 12% polyacrylamide gel for CTR, RAMP3, NeuN, synapsin1, phospho-synapsin, and Iba1, or 4-20% polyacrylamide gradient gel (BioRad) for APP. Proteins were transferred to nitrocellulose membrane, and blocked with LiCOR blocking buffer. Blots were incubated with primary antibodies overnight at 4° C. on a shaker. Primary antibody used for CTR (1:1000 rabbit; Thermo Scientific), RAMP3 (1:1000 rabbit; Santa Cruz Biotechnology), 6E10 for APP (1:5000 mouse; 6E10; Covance), NeuN (1:1000, rabbit, Abcam), synapsin-1 (1:1000 rabbit, Abcam), synaptophysin (1:1000, rabbit, Abcam), phosphosynapsin (1:1000, rabbit, Abcam), Iba1 (1:1000, rabbit, Wako), β-tubulin (1:1000, rabbit, Cell Signaling Technology, Inc.) and β-actin (1:10000 mouse, Sigma-Aldrich). IRDye 800CW goat anti-rabbit and IRDye 680CW goat anti-mouse were used as secondary antibodies. Blots were imaged using LiCor Odyssey image system.

[2] = biological target: T1, AMY3 receptor (CTR+RAMP3), HEK293-AMY3 cells (Homo sapiens, UniProt O60896+P30988); assay: Peptide array-cell binding assay, AMY3 cells; conditions: membrane-bound peptides, GFP cells
T1 construct: expressed in transfected cells; AMY3-293 / AMY3-HEK)
T1 sequence (P30988 25-474): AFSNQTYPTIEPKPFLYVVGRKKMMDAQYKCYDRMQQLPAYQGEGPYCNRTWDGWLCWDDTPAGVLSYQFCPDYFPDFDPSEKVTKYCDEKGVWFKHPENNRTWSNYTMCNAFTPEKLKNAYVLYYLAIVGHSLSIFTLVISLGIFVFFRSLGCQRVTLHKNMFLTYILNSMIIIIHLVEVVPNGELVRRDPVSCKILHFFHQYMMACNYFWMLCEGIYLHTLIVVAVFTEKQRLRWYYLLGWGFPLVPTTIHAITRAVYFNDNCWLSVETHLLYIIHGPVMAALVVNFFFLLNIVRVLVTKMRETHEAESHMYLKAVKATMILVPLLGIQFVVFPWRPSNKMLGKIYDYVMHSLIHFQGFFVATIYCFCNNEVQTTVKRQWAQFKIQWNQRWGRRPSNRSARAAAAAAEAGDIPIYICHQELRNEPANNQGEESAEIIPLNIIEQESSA
T1 sequence (O60896 24-148 partner): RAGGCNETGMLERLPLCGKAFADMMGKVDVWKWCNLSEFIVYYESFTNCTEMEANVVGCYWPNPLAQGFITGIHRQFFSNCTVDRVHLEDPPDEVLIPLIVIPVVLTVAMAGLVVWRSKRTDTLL
Source text: A peptide array library derived from AC253 peptide sequence comprising 14 short peptide sequences namely, R1-R14 (R-R13 are 12 amino acids, peptide R14 is 14 aa), was synthesized in duplicate on a cellulose membrane using SPOT synthesis. Briefly, peptide fragments were designed by selecting the first 12 amino acids from N-terminus, skipping one amino acid and moving towards C-terminus to yield 13 sequences R1-R13, and peptide R14 is the first 14 amino acid of the N-terminus region of AC253. The peptide array was synthesized on a PEG-500-derivatized cellulose membrane with a free amino terminal group using a semiautomatic robot AutoSpot ASP222 (Intavis AG, Germany). Synthesis of peptides on PEG500 derivatised cellulose membrane was started by attaching first β-alanine residue (linker) to the cellulose membrane and subsequently peptides synthesized from the C-terminus. […]
To screen the peptide library for amylin receptor binding affinity, transfected GFP-positive Human Embryonic Kidney 293 cells that express AMY3 receptor (CTR+RAMP3) was used. […] The peptide array membrane was incubated with 20 ml GFP-cells (75,000/ml) in serum free media for 3 hr, and after washing, the net fluorescence intensity of each peptide spot due to bound cells was quantified using a Kodak imager. […] Duplicate peptide spots, two scans, and two different experiments were used to calculate net fluorescence intensity. […]

AMY1 = biological target: T2, AMY1 (Homo sapiens, UniProt O60894+P30988); assay: Flow cytometry cell uptake, AMY1 cells; type: cell-based; conditions: 10 μM, 37° C., 60 min
T2 construct: expressed in transfected cells
T2 sequence (O60894 27-148 partner, one chain of several): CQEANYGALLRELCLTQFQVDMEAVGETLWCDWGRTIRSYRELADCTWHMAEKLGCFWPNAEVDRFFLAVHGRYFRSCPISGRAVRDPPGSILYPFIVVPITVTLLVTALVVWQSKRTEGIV

Compound	amylin receptor (CTR, RAMP3 proteins) expression levels in the brain ([1]; Tg AC253 vs Tg CSF)	increase in expression level of synapsin 1 ([1]; Tg AC253 vs Tg CSF controls) [%]	increase in expression level of synaptophysin ([1]; Tg AC253 vs Tg CSF controls) [%]	APP expression (Western blot) ([1]; Tg AC253 vs Tg CSF, 5 months icv)	reduction of expression levels of Iba-1 (microglial marker) ([1]; Tg-AC253 vs Tg-CSF) [%]	binding to HEK293-AMY3 cells on peptide array (fluorescence) [2]	flow cytometry binding to AMY1 cells (AMY1)
CC(C)C[C@H](NC(=O)[C@H](CCCNC(=N)N)NC(=O)CNC(=O)[C@@H](N)CC(C)C)C(=O)N[C@@H](CO)C(=O)N[C@@H](CCC(N)=O)C(=O)N[C@@H](CCC(=O)O)C(=O)N[C@@H](CC(C)C)C(=O)N[C@@H](Cc1c[nH]cn1)C(=O)N[C@@H](CCCNC(=N)N)C(=O)N[C@@H](CC(C)C)C(=O)N[C@@H](CCC(N)=O)C(=O)N[C@H](C(=O)N[C@@H](Cc1ccc(O)cc1)C(=O)N1CCC[C@H]1C(=O)N[C@@H](CCCNC(=N)N)C(=O)N[C@H](C(=O)N[C@@H](CC(N)=O)C(=O)N[C@H](C(=O)NCC(=O)N[C@@H](CO)C(=O)N[C@@H](CC(N)=O)C(=O)N[C@H](C(=O)N[C@@H](Cc1ccc(O)cc1)C(N)=O)[C@@H](C)O)[C@@H](C)O)[C@@H](C)O)[C@@H](C)O [AC253]	no noticeable difference	40	30	no significant difference	50		
CC(C)C[C@H](NC(=O)[C@H](CCC(=O)O)NC(=O)[C@H](CCC(N)=O)NC(=O)[C@@H](N)CO)C(=O)N[C@@H](Cc1c[nH]cn1)C(=O)N[C@@H](CCCNC(=N)N)C(=O)N[C@@H](CC(C)C)C(=O)N[C@@H](CCC(N)=O)C(=O)N[C@H](C(=O)N[C@@H](Cc1ccc(O)cc1)C(=O)N1CCC[C@H]1C(=O)N[C@@H](CCCNC(=N)N)C(N)=O)[C@@H](C)O [R5] (H-SQELHRLQTYPR-NH2; N-terminus assumed)						most significant binding	selective and significant specific binding
LGRLSQELHRLQTY (LGRLSQELHRLQTY-NH2) [R14]						most significant binding	selective and significant specific binding
